These results are taken from ChEMBL document CHEMBL1153211, “Evaluation of secondary amide replacements in a series of CCR5 antagonists as a means to increase intrinsic membrane permeability. Part 1: Optimization of gem-disubstituted azacycles” (Bioorg Med Chem Lett, 2010).

Each structure is given as a SMILES string.

Data set [1] deals with Human immunodeficiency virus 1. The experiment in a line: Antiviral activity against HIV1 infected in human JC53-BL cells after 3 days by luciferase reporter gene assay. The class given is functional, organism-based. The conditions noted are these: Human immunodeficiency virus 1, JC53BL, 72 h.
The target in data set [2] is C-C chemokine receptor type 5 (Homo sapiens, UniProt P51681). The data set can be described thus: Antagonist activity at human CCR5. Format: functional.
Chain of C-C chemokine receptor type 5 (P51681 whole entry): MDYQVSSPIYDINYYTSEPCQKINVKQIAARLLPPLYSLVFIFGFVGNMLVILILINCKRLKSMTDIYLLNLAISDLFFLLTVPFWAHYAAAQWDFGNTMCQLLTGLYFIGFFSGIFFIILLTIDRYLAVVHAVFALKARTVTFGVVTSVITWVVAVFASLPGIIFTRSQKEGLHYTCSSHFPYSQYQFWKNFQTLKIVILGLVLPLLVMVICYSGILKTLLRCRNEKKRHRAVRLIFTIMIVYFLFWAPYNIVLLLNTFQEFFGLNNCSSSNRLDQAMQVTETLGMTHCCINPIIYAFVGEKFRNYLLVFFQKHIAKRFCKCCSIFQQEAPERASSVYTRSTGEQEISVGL
Data set [3] in a line: Apparent permeability from apical to basolateral side of human Caco-2 cells after 21 days. A general note: Caco-2 monolayers are a common model of the intestinal barrier.

One may read the IC50 as the concentration that inhibits the measured activity by half. A low value points to greater potency in that assay. As to `Cc1ncnc(C)c1C(=O)N1C[C@H]2CN(CCC3(c4ccccc4)CN(C(=O)C4CCC(F)(F)CC4)C3)C[C@H]2C1`, the IC50 in data set [1] came out at 21 nM; in data set [2], 28 nM.
Take `Cc1nc(C(F)(F)F)nc(C)c1C(=O)N1C[C@H]2CN(CCC3(c4ccccc4)CN(C(=O)C4CCC(F)(F)CC4)C3)C[C@H]2C1`: the IC50 in data set [1] was found to be 4 nM; in data set [2] it was 30 nM.
For `Cc1ccnc(C)c1C(=O)N1C[C@H]2CN(CCC3(c4ccccc4)CN(C(=O)C4CCC(F)(F)CC4)C3)C[C@H]2C1`, in that order: 12 nM and 38 nM.
In general, Papp A→B refers to how fast a substance crosses the layer from the apical side. For `Cc1cc(C#N)nc(C)c1C(=O)N1C[C@H]2CN(CCC3(c4ccccc4)CN(C(=O)C4CCC(F)(F)CC4)C3)C[C@H]2C1`, the IC50 in data set [1] was found to be 2 nM; in data set [2] it was 17 nM. In data set [3], the Papp A→B is 0.53 ×10⁻⁶ cm/s.
Turning to `Cc1cc(C#N)nc(C)c1C(=O)N1C[C@H]2CN(CCC3(c4ccccc4)CN(C(=O)C4CC(F)(F)C4)C3)C[C@H]2C1`, the IC50 in data set [1] turned out to be 4 nM; in data set [2], 24 nM. Further, the Papp A→B in data set [3] came out at 0.44 ×10⁻⁶ cm/s.
Turning to `Cc1cc(C(F)(F)F)nc(C)c1C(=O)N1C[C@H]2CN(CCC3(c4ccccc4)CN(C(=O)C4CCC(F)(F)CC4)C3)C[C@H]2C1`, the figures for the IC50 in data set [1] and in data set [2] were 61.2 nM and 21 nM, respectively. The Papp A→B in data set [3] is 1.72 ×10⁻⁶ cm/s.
On to `Cc1cc(C(F)(F)F)nc(C)c1C(=O)N1C[C@H]2CN(CCC3(c4ccccc4)CN(C(=O)C4CC(F)(F)C4)C3)C[C@H]2C1`, for which the results for the IC50 in data set [1] and in data set [2] were 4 nM and 22 nM, respectively. Further, the Papp A→B in data set [3] amounted to 1.59 ×10⁻⁶ cm/s.
Turning to `Cc1nc(C(F)(F)F)nc(C)c1C(=O)N1C[C@H]2CN(CCC3(c4ccccc4)CN(C(=O)C4CCOC4)C3)C[C@H]2C1` (stereo partly specified), the IC50 in data set [1] stood at 59 nM; in data set [2], 38 nM.
Turning to `Cc1nc(C(F)(F)F)nc(C)c1C(=O)N1C[C@H]2CN(CCC3(c4ccccc4)CN(C(=O)C4CC(F)(F)C4)C3)C[C@H]2C1`, the IC50 in data set [1] is 23 nM; in data set [2], 66 nM.
Consider `Cc1ncnc(C)c1C(=O)N1C[C@H]2CN(CCC3(c4ccccc4)CN(C(=O)C4CC(F)(F)C4)C3)C[C@H]2C1`, for which the IC50 in data set [1] is 39 nM; in data set [2], 30 nM.
As for `Cc1ncnc(C)c1C(=O)N1C[C@H]2CN(CCC3(c4ccccc4)CN(S(=O)(=O)C4CCCC4)C3)C[C@H]2C1`, the IC50 in data set [1] worked out at 40 nM; in data set [2] it was 27 nM.
As for `Cc1ncnc(C)c1C(=O)N1C[C@H]2CN(CCC3(c4ccccc4)CCN(C(=O)C(C)(C)C)C3)C[C@H]2C1` (stereo partly specified), in data set [2], inhibition was half-maximal at 242 nM (IC50).
As for `Cc1ncnc(C)c1C(=O)N1C[C@H]2CN(CCC3(c4cccc(F)c4)CCN(C(=O)CC(C)(C)C)CC3)C[C@H]2C1`, the IC50 in data set [1] is 447 nM.
For the compound `Cc1ncnc(C)c1C(=O)N1C[C@H]2CN(CCC3(c4cccc(F)c4)CCN(C(=O)C(C)(C)CO)CC3)C[C@H]2C1`, in data set [2], the IC50 stood at 167 nM.
Consider `Cc1cc(C#N)nc(C)c1C(=O)N1C[C@H]2CN(CCC3(c4cccc(F)c4)CCN(C(=O)C(C)(C)C)CC3)C[C@H]2C1`, for which the IC50 in data set [1] was 18 nM; in data set [2] it was 15 nM. Also, the Papp A→B in data set [3] worked out at 2.73 ×10⁻⁶ cm/s.
On the same counts, the results for `Cc1cc(C#N)nc(C)c1C(=O)N1C[C@H]2CN(CCC3(c4ccccc4)CCN(C(=O)C4CCCC4)C3)C[C@H]2C1` (stereo partly specified) are 24 nM, 46 nM and 2.55 ×10⁻⁶ cm/s.
On the same counts, the results for `Cc1ncnc(C)c1C(=O)N1C[C@H]2CN(CCC3(c4cccc(F)c4)CCN(C(=O)C(C)(C)C)CC3)C[C@H]2C1` are 67 nM, 59 nM and 2.98 ×10⁻⁶ cm/s.
Consider `Cc1cc(C#N)nc(C)c1C(=O)N1C[C@H]2CN(CCC3(c4ccccc4)CCN(C(=O)C(C)(C)C)C3)C[C@H]2C1` (stereo partly specified), for which, in data set [2], half-maximal inhibition (IC50) required 69 nM.
For `Cc1ncnc(C)c1C(=O)N1C[C@H]2CN(CCC3(c4ccccc4)CN(C(=O)C4CCCC4)C3)C[C@H]2C1`, the values for the IC50 in data set [1] and in data set [2] were 60 nM and 67 nM, respectively.
On to `Cc1ncnc(C)c1C(=O)N1C[C@H]2CN(CCC3(c4cccc(F)c4)CCN(C(=O)C(C)C)CC3)C[C@H]2C1`, for which the values for the IC50 in data set [1] and in data set [2] were greater than 400 nM and 102 nM, respectively.
For `Cc1ncnc(C)c1C(=O)N1C[C@H]2CN(CCC3(c4ccccc4)CCN(C(=O)C4CCCC4)C3)C[C@H]2C1` (stereo partly specified), in that order: 351 nM and 116 nM.
Regarding `Cc1ccnc(C)c1C(=O)N1C[C@H]2CN(CCC3(c4ccccc4)CN(C(=O)C4CC(F)(F)C4)C3)C[C@H]2C1`, the IC50 in data set [1] is 55 nM; in data set [2], 60 nM.
With `Cc1ncnc(C)c1C(=O)N1C[C@H]2CN(CCC3(c4ccccc4)CN(C(=O)CC4CCCC4)C3)C[C@H]2C1`, the figures for the IC50 in data set [1] and in data set [2] were 53 nM and 28 nM, respectively.
As for `Cc1ncnc(C)c1C(=O)N1C[C@H]2CN(CCC3(c4ccccc4)CN(C(=O)C4CCOC4)C3)C[C@H]2C1` (stereo partly specified), the 50% inhibitory concentration (IC50) in data set [1] stood at 204 nM; in data set [2] it was 55 nM.
With `CC(=O)N1CCC(CCN2C[C@@H]3CN(C(=O)c4c(C)ncnc4C)C[C@@H]3C2)(c2cccc(F)c2)CC1`, the IC50 in data set [2] is greater than 500 nM.
Regarding `Cc1ncnc(C)c1C(=O)N1C[C@H]2CN(CCC3(c4ccccc4)CN(C(=O)C(C)(C)CO)C3)C[C@H]2C1`, the IC50 was 130 nM in data set [1] and 56 nM in data set [2].
Regarding `Cc1ncnc(C)c1C(=O)N1C[C@H]2CN(CCC3(c4ccccc4)CN(C(=O)C(C)(C)C)C3)C[C@H]2C1`, the IC50 in data set [1] was 77 nM; in data set [2], 27 nM.
